Laboratory results taken from article PMC8429728, “TNK1 is a ubiquitin-binding and 14-3-3-regulated kinase that can be targeted to block tumor growth” (Nature Communications, 2021).
Where two headings read alike, the source gives them in different places.

Assays:
Aurora A = biological target: T1, Aurora A (Homo sapiens, UniProt O14965); assay: radiometric […]-ATP kinase assay with recombinant kinase at Km ATP ([…]); format: biochemical
T1 construct: gene AURKA
T1 sequence (O14965 1-403): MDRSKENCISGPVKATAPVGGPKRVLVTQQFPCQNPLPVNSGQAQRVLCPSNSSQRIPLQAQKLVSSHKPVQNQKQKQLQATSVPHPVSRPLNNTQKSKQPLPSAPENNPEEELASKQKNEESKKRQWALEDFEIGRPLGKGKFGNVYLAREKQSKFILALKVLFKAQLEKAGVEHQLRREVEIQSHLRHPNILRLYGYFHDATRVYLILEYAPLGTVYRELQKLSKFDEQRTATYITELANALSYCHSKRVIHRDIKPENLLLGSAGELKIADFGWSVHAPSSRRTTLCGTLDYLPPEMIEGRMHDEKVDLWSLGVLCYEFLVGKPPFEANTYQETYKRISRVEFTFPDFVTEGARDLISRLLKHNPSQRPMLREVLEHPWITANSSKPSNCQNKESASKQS

TNK1 = biological target: T2, TNK1 (Homo sapiens, UniProt Q13470); assay: radiometric […]-ATP kinase assay with recombinant kinase at Km ATP ([…]); supported by NanoBRET target engagement in HEK293 cells (IC50 […]); format: biochemical
T2 sequence (Q13470 1-666): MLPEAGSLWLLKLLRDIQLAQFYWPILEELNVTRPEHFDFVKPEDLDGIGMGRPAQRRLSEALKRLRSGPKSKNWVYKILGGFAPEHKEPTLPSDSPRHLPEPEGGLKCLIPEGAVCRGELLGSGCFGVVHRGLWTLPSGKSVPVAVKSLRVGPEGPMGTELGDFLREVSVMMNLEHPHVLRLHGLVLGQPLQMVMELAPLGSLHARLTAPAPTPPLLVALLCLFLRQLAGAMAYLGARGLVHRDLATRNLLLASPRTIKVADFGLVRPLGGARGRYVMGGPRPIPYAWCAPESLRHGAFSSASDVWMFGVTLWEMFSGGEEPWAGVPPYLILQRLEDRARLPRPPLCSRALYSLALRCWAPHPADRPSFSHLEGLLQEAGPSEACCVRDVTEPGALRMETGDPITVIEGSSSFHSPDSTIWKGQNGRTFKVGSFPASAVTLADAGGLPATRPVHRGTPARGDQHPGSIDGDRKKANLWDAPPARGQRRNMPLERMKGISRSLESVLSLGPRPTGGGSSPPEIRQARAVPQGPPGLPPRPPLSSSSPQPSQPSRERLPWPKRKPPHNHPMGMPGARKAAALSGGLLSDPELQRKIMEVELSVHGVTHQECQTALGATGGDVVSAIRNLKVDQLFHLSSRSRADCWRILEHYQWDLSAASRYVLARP

AKT3 = AKT3 (Homo sapiens, UniProt Q9Y243); assay: biochemical; parameters: Reaction Biology 371-kinase panel at Km ATP, per cent enzyme activity relative to DMSO, single dose in duplicate; conditions: duplicate measurements, Km ATP
Method: (§1) To assess kinase selectivity, we screened TP-5801 (300 nM) against a panel of 371 kinases in vitro. […] In addition to TNK1, only 7 other kinases were inhibited by more than 90% (Supplementary Fig. 8 and Supplementary Data 2). […] The resulting % Enzyme activity (relative to DMSO controls) were plotted in GraphPad and IC50 values were determined by sigmoidal dose-response (variable slope) curve fits, with a bottom constraint of 0.

CLK1 = CLK1 (Homo sapiens, UniProt P49759); assay: biochemical; parameters: Reaction Biology 371-kinase panel at Km ATP, per cent enzyme activity relative to DMSO, single dose in duplicate; conditions: duplicate measurements, Km ATP
Method: as §1

FGR = FGR (Homo sapiens, UniProt P09769); assay: biochemical; parameters: Reaction Biology 371-kinase panel at Km ATP, per cent enzyme activity relative to DMSO, single dose in duplicate; conditions: duplicate measurements, Km ATP
Method: as §1

FMS = biological target: T3, FMS (Homo sapiens, UniProt P07333); assay: biochemical; parameters: Reaction Biology 371-kinase panel at Km ATP, per cent enzyme activity relative to DMSO, single dose in duplicate; conditions: duplicate measurements, Km ATP
T3 construct: gene CSF1R
Method: as §1

HCK = HCK (Homo sapiens, UniProt P08631); assay: biochemical; parameters: Reaction Biology 371-kinase panel at Km ATP, per cent enzyme activity relative to DMSO, single dose in duplicate; conditions: duplicate measurements, Km ATP
Method: as §1

HIPK2 = HIPK2 (Homo sapiens, UniProt Q9H2X6); assay: biochemical; parameters: Reaction Biology 371-kinase panel at Km ATP, per cent enzyme activity relative to DMSO, single dose in duplicate; conditions: duplicate measurements, Km ATP
Method: as §1

LKB1 = biological target: T4, LKB1 (Homo sapiens, UniProt Q15831); assay: biochemical; parameters: Reaction Biology 371-kinase panel at Km ATP, per cent enzyme activity relative to DMSO, single dose in duplicate; conditions: duplicate measurements, Km ATP
T4 construct: gene STK11
Method: as §1

NEK11 = NEK11 (Homo sapiens, UniProt Q8NG66); assay: biochemical; parameters: Reaction Biology 371-kinase panel at Km ATP, per cent enzyme activity relative to DMSO, single dose in duplicate; conditions: duplicate measurements, Km ATP
Method: as §1

NEK4 = NEK4 (Homo sapiens, UniProt P51957); assay: biochemical; parameters: Reaction Biology 371-kinase panel at Km ATP, per cent enzyme activity relative to DMSO, single dose in duplicate; conditions: duplicate measurements, Km ATP; read-out: % Enzyme Activity (relative to DMSO controls) / TP-0005801 (0.3µM) / Data 1
Method: as §1

PKN2/PRK2 = PKN2/PRK2 (Homo sapiens, UniProt Q16513); assay: biochemical; parameters: Reaction Biology 371-kinase panel at Km ATP, per cent enzyme activity relative to DMSO, single dose in duplicate; conditions: duplicate measurements, Km ATP
Method: as §1

SIK1 = SIK1 (Homo sapiens, UniProt P57059); assay: biochemical; parameters: Reaction Biology 371-kinase panel at Km ATP, per cent enzyme activity relative to DMSO, single dose in duplicate; conditions: duplicate measurements, Km ATP
Method: as §1

p70S6K/RPS6KB1 = p70S6K/RPS6KB1 (Homo sapiens, UniProt P23443); assay: biochemical; parameters: Reaction Biology 371-kinase panel at Km ATP, per cent enzyme activity relative to DMSO, single dose in duplicate; conditions: duplicate measurements, Km ATP
Method: as §1

[1] = read-out: % Enzyme Activity (relative to DMSO controls) / TP-0005801 (0.3µM) / Data 1
[2] = read-out: % Enzyme Activity (relative to DMSO controls) / TP-0005801 (0.3µM) / Data 2

Sequence of PKN2/PRK2 (Q16513 whole entry): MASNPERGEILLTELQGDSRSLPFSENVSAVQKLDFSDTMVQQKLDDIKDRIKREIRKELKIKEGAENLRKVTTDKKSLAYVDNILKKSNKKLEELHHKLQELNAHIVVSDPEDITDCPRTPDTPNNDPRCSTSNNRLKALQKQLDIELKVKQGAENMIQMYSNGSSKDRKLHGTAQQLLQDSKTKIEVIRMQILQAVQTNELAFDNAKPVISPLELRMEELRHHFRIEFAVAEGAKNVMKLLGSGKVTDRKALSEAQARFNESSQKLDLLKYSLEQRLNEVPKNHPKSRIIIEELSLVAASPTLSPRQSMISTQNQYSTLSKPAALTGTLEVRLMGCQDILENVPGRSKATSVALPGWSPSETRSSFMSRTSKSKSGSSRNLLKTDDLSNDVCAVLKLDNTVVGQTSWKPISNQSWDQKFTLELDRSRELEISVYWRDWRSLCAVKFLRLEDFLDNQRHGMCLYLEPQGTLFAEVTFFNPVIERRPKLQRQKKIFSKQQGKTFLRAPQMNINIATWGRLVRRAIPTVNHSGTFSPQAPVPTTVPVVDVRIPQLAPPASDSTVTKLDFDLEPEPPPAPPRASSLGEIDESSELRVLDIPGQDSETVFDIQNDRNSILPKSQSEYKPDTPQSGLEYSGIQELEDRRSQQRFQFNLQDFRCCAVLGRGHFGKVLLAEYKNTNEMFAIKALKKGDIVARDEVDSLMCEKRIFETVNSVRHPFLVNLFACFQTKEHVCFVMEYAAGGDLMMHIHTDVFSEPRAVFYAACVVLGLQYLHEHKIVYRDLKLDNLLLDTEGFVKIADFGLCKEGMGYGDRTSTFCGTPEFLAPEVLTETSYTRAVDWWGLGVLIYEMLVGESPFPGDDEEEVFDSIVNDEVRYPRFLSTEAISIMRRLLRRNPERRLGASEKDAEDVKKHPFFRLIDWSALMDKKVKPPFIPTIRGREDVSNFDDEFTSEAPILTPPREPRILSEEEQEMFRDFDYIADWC
Sequence of HIPK2 (Q9H2X6 whole entry): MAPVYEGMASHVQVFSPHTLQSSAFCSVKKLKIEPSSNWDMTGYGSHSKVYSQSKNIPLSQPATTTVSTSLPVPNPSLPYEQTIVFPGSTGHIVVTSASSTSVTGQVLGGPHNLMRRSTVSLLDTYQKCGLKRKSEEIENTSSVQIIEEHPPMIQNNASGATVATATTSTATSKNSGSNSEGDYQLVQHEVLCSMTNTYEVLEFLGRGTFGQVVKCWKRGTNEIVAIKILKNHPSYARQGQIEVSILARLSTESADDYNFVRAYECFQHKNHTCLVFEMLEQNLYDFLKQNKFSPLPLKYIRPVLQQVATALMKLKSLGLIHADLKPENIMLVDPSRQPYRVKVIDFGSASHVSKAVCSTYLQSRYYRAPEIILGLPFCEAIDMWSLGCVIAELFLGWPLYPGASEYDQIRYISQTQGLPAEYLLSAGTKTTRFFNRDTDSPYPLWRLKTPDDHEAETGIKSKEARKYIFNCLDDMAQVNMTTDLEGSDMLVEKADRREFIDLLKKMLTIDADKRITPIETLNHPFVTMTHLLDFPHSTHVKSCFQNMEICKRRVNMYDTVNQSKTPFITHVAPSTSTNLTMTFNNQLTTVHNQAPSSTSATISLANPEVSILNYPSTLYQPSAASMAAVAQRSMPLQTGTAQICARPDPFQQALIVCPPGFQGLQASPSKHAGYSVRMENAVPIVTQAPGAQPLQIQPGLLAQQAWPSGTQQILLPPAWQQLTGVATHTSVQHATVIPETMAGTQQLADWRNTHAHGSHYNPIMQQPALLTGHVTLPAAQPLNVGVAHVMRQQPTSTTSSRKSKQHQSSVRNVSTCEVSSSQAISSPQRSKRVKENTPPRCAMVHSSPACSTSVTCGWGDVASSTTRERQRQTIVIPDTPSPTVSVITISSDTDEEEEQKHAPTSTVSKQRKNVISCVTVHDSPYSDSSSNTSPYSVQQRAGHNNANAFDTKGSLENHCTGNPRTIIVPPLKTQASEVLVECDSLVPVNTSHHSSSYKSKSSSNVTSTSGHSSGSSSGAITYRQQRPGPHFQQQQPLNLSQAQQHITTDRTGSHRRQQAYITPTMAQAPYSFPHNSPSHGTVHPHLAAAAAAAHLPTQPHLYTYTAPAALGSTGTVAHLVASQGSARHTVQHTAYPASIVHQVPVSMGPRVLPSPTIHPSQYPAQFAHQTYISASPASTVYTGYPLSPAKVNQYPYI
Sequence of p70S6K/RPS6KB1 (P23443 whole entry): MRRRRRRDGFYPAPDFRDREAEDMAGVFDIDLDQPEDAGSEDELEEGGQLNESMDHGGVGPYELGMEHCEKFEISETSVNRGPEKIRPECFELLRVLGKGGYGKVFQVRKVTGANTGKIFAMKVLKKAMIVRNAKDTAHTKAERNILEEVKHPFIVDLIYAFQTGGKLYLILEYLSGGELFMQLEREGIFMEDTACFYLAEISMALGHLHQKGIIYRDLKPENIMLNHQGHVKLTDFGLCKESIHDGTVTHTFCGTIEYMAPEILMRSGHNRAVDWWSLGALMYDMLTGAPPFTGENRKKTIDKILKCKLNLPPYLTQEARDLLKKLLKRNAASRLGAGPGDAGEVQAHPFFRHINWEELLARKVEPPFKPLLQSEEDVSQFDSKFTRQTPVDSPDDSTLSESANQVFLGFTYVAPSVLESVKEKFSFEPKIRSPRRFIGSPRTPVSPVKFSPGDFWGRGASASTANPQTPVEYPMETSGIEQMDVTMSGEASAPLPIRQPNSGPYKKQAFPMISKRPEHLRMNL
Sequence of CLK1 (P49759 whole entry): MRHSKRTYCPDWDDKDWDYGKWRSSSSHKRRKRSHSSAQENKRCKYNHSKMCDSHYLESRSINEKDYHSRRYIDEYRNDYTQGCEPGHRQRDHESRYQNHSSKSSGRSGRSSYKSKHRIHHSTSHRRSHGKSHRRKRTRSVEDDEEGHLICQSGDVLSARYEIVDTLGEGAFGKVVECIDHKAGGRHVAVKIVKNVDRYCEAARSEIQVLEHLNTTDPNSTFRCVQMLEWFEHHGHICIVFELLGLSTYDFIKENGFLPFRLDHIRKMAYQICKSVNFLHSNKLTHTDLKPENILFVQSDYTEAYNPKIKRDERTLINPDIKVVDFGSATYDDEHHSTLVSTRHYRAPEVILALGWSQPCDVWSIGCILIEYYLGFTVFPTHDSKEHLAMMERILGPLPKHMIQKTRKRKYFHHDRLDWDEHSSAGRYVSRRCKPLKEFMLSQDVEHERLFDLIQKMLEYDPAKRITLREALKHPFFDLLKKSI
T3 sequence (P07333 whole entry): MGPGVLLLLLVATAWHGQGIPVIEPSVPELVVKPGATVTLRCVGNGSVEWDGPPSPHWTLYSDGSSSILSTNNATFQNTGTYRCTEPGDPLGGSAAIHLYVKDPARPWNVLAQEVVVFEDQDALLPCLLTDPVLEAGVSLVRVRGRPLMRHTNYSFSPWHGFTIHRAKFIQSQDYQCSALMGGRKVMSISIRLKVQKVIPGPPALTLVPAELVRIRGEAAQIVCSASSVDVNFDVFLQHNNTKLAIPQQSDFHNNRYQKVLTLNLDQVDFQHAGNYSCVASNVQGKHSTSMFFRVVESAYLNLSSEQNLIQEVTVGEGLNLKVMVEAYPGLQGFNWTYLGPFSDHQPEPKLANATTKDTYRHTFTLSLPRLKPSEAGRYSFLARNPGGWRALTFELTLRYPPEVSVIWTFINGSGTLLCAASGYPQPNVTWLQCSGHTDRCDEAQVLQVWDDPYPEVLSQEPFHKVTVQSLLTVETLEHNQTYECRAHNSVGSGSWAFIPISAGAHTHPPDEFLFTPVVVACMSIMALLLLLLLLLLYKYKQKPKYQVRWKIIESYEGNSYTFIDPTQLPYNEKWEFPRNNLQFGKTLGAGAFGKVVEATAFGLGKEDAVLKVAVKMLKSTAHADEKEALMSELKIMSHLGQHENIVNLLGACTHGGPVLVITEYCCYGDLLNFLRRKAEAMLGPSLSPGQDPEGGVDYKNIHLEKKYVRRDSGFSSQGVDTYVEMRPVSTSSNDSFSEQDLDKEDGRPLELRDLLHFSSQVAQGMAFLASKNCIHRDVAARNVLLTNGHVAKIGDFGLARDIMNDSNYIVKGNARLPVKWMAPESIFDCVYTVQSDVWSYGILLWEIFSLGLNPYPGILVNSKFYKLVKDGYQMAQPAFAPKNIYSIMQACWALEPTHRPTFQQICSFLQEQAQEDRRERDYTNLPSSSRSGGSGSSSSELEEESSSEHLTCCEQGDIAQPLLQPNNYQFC
Sequence of NEK11 (Q8NG66 whole entry): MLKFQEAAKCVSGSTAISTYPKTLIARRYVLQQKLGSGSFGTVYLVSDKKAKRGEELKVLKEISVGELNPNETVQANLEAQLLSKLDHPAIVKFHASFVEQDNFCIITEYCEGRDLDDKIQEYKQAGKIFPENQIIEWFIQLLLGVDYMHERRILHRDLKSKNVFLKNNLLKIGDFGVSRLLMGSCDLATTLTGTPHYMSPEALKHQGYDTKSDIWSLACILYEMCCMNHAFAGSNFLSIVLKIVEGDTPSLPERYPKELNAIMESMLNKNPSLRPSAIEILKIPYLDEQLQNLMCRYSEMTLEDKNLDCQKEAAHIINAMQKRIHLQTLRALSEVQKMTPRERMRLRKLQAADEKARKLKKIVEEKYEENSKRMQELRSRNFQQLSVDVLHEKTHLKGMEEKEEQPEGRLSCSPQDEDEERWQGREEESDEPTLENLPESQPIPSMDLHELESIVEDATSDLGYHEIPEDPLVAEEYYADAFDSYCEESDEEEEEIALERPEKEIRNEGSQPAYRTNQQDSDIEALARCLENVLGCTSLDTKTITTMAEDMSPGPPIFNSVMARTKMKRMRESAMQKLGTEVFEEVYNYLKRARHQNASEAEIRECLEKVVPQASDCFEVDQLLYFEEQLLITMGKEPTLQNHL

COc1cc(N2CCN(C)CC2)c(C)cc1Nc1ncc(Br)c(Nc2cccnc2N(C)C)n1 [TP-5801]
IC50 (Aurora A): 5380 nM | IC50 (TNK1): 1.4 nM | remaining activity at 0.3 µM (AKT3; [1]): 105% | remaining activity at 0.3 µM (AKT3; [2]): 98.7% | remaining activity at 0.3 µM (CLK1; [1]): 11.9% | remaining activity at 0.3 µM (CLK1; [2]): 11.7% | remaining activity at 0.3 µM (FGR; [1]): 109% | remaining activity at 0.3 µM (FGR; [2]): 105% | remaining activity at 0.3 µM (FMS; [1]): 56.3% | remaining activity at 0.3 µM (FMS; [2]): 55.6% | remaining activity at 0.3 µM (HCK; [1]): 105% | remaining activity at 0.3 µM (HCK; [2]): 102% | remaining activity at 0.3 µM (HIPK2; [1]): 106% | remaining activity at 0.3 µM (HIPK2; [2]): 96.6% | remaining activity at 0.3 µM (LKB1; [1]): 107% | remaining activity at 0.3 µM (LKB1; [2]): 105% | remaining activity at 0.3 µM (NEK11; [1]): 99.3% | remaining activity at 0.3 µM (NEK11; [2]): 94.5% | remaining activity at 0.3 µM (NEK4): 122% | remaining activity at 0.3 µM (PKN2/PRK2; [1]): 97.2% | remaining activity at 0.3 µM (PKN2/PRK2; [2]): 95.9% | remaining activity at 0.3 µM (SIK1; [1]): 94.2% | remaining activity at 0.3 µM (SIK1; [2]): 92.8% | remaining activity at 0.3 µM (p70S6K/RPS6KB1; [1]): 105% | remaining activity at 0.3 µM (p70S6K/RPS6KB1; [2]): 102%
